Test results taken from ChEMBL document CHEMBL1125627 (J Med Chem, 1991).

Columns and labels:
[1] = Percentage ionization was measured; type: ADME
[2] = physchem
[3] = Serum protein binding ability was measured; type: ADME

Work on `CC[C@H]1OC(=O)[C@H](C)[C@@H](O[C@H]2C[C@@](C)(OC)[C@@H](O)[C@H](C)O2)[C@H](C)[C@@H](O[C@@H]2O[C@H](C)C[C@H](N(C)C)[C@H]2O)[C@](C)(O)C[C@@H](C)C(=O)[C@H](C)[C@@H](O)[C@]1(C)O` [ERYTHROMYCIN] yielded an Ionization [1] of over 96%, a pKa [2] of 8.8 and a Binding [3] of 80%.
Compound `CC[C@H]1OC(=O)[C@H](C)[C@@H](O[C@H]2C[C@@](C)(OC)[C@@H](O)[C@H](C)O2)[C@H](C)[C@@H](O[C@@H]2O[C@H](C)C[C@H](N(C)C)[C@H]2O)[C@](C)(O)C[C@@H](C)/C(=N\OCOCCOC)[C@H](C)[C@@H](O)[C@]1(C)O` [ROXITHROMYCIN] has an Ionization [1] of over 96%, a pKa [2] of 9.2 and a Binding [3] of 95%.
